In ChEMBL document CHEMBL1146479, “Antineoplastic agents. 522. Hernandia peltata (Malaysia) and Hernandia nymphaeifolia (Republic of Maldives)” (2004):
Values after ≈ are worked out from the molar mass of the structure shown.

Experiments:
Type in all cases: functional
[1] = system: Neisseria gonorrhoeae; assay: Antimicrobial activity against Neisseria gonorrhoeae ATCC 49226 by antimicrobial susceptibility testing
[2] = system: SF-268; assay: Anticancer activity against human SF268 cells after 48 hrs by SRB assay; conditions: SF-268, 48 h, read-out: ED50 (the source's name)
[3] = system: DU-145; assay: Anticancer activity against human DU145 cells after 48 hrs by SRB assay; conditions: DU-145, 48 h, read-out: ED50 (the source's name)
[4] = system: P388; assay: Anticancer activity against mouse P388 cells after 48 hrs; conditions: P388, 48 h, read-out: ED50 (the source's name)
[5] = system: KM-20L2; assay: Anticancer activity against human KM20L2 cells after 48 hrs by SRB assay; conditions: KM-20L2, 48 h, read-out: ED50 (the source's name)
[6] = system: NCI-H460; assay: Anticancer activity against human NCI-H460 cells after 48 hrs by SRB assay; conditions: NCI-H460, 48 h, read-out: ED50 (the source's name)
[7] = system: MCF7; assay: Anticancer activity against human MCF7 cells after 48 hrs by SRB assay; conditions: MCF7, 48 h, read-out: ED50 (the source's name)
[8] = system: BXPC-3; assay: Anticancer activity against human BxPC3 cells after 48 hrs by SRB assay; conditions: BXPC-3, 48 h, read-out: ED50 (the source's name)

MIC [1]	Structure (SMILES)	EC50 [2]	EC50 [3]	EC50 [4]	EC50 [5]	EC50 [6]	EC50 [7]	EC50 [8]
32 µg/mL (≈ 82.8 µM)	COc1ccc(C[C@H]2COC(=O)[C@@H]2Cc2ccc(OC)c(OC)c2)cc1OC							
32 µg/mL (≈ 82.4 µM)	COc1ccc(CC2COC(O)C2Cc2ccc(OC)c(OC)c2)cc1OC (stereo not given) [KUSUNOKINOL]							
	COc1ccc([C@H]2OC[C@H]3[C@@H]2CO[C@H]3c2ccc(OC)c(OC)c2)cc1OC	3.8 µg/mL (≈ 9.83 µM)	3.1 µg/mL (≈ 8.02 µM)	1.7 µg/mL (≈ 4.4 µM)	3 µg/mL (≈ 7.76 µM)	3.8 µg/mL (≈ 9.83 µM)	3.5 µg/mL (≈ 9.06 µM)	3.4 µg/mL (≈ 8.8 µM)
32 µg/mL (≈ 79.5 µM)	COc1cc(CC2C(Cc3ccc4c(c3)OCO4)COC2O)cc(OC)c1OC (stereo not given) [CLUSIN]							
32 µg/mL (≈ 79.5 µM)	COc1cc(C[C@H]2COC(=O)[C@@H]2Cc2cc(OC)c(OC)c(OC)c2)ccc1O [HERNANOL]							
	COc1cc([C@@H]2OC[C@H]3[C@@H]2CO[C@@H]3c2ccc3c(c2)OCO3)cc(OC)c1OC	> 10 µg/mL	> 10 µg/mL	1.5 µg/mL (≈ 3.75 µM)	> 10 µg/mL	> 10 µg/mL	> 10 µg/mL	> 10 µg/mL
32 µg/mL (≈ 76.8 µM)	COc1cc([C@@H](O)[C@H]2C(=O)OC[C@@H]2Cc2ccc3c(c2)OCO3)cc(OC)c1OC [PODORHIZOL]	> 10 µg/mL	> 10 µg/mL	> 1 µg/mL	> 10 µg/mL	> 10 µg/mL	6.6 µg/mL (≈ 15.8 µM)	3.8 µg/mL (≈ 9.13 µM)
	COc1cc2c(c(OC)c1OC)-c1cc3c(cc1C[C@H]1COC(=O)[C@@H]1C2)OCO3 [STEGANE]	4.9 µg/mL (≈ 12.3 µM)	5.3 µg/mL (≈ 13.3 µM)	6.1 µg/mL (≈ 15.3 µM)	4.8 µg/mL (≈ 12 µM)	5.8 µg/mL (≈ 14.6 µM)	4.3 µg/mL (≈ 10.8 µM)	4.7 µg/mL (≈ 11.8 µM)
32 µg/mL (≈ 79.9 µM)	COc1cc2c(c(OC)c1OC)[C@]13C=C(O)C(=O)C=C1O[C@H]2[C@H]1C(=O)OC[C@@H]1C3							

Structure (SMILES)	MIC [1]	EC50 [2]	EC50 [3]	EC50 [4]	EC50 [5]	EC50 [6]	EC50 [7]	EC50 [8]
COc1cc([C@@H]2c3cc4c(cc3C[C@H]3COC(=O)[C@H]32)OCO4)cc(OC)c1OC [DEOXYPICROPODOPHYLLIN]	32 µg/mL (≈ 80.3 µM)	0.041 µg/mL (≈ 0.103 µM)	0.051 µg/mL (≈ 0.128 µM)	0.03 µg/mL (≈ 0.0753 µM)	0.054 µg/mL (≈ 0.136 µM)	0.067 µg/mL (≈ 0.168 µM)	0.026 µg/mL (≈ 0.0653 µM)	0.061 µg/mL (≈ 0.153 µM)
COc1cc([C@@H]2c3cc4c(cc3C[C@H]3COC(=O)[C@@H]32)OCO4)cc(OC)c1OC [DESOXYPODOPHYLLOTOXIN]	32 µg/mL (≈ 80.3 µM)	0.0033 µg/mL (≈ 0.00828 µM)	0.0028 µg/mL (≈ 0.00703 µM)	0.0023 µg/mL (≈ 0.00577 µM)	0.0028 µg/mL (≈ 0.00703 µM)	0.0027 µg/mL (≈ 0.00678 µM)	0.0021 µg/mL (≈ 0.00527 µM)	0.0029 µg/mL (≈ 0.00728 µM)
